From US7968537B2, “Pyrimidine compound and pests controlling composition containing the same” (Sumitomo Chemical Company, Limited, priority 2003, dated 2011) come the findings set out here.

One assay concerns cotton aphids (Aphis gossypii). The experiment in a line: Test Example 1: spray test on cotton aphids on cucumber plants. The settings on record: 500 ppm active ingredient, sprayed 20 ml/cup on cucumber with about 20 cotton aphids; 6th day after the application. The class given is in vivo. The method, then: A formulation of a test compound obtained in Formulation Example 5 was diluted with water so that the active ingredient concentration came to 500 ppm to prepare a test spray liquid. The seeds of cucumber were planted in polyethylene cups and grown until their first foliage leaves developed, on which about 20 cotton aphids (Aphis gossypii) were made parasitic. After one day, the test spray liquid was sprayed at the rate of 20 ml/cup onto the cucumber plants. On the 6th day after the application, the number of cotton aphids was examined and the control value was determined by the following formula: Control value (%)={1−(Cb×Tai)/(Cai×Tb)}×100 wherein the variables in the formula have the following meanings: Cb: the number of insects before the treatment in the non-treated area; Cai: the number of insects at the time of observation in the non-treated area; Tb: the number of insects before the treatment in the treated area; and Tai: the number of insects at the time of observation in the treated area.
For the molecule `COc1cc(N2CCCCC2)ncn1` [compound of the formula (A)], the control value is ≤ 29%.

The subject of a further assay is Western flower thrips (Frankliniella occidentalis). The experiment in a line: Test Example 2: Western flower thrips larvae on treated cucumber leaf. The class given is in vivo. The settings on record: 500 ppm, 20 ml/cup on cucumber; thirty larvae set free on cut first true leaf; after seven days. The method, then:
A formulation of each test compound obtained according to Formulation Example 5 was diluted with water so that the active ingredient concentration came to 500 ppm to prepare a test spray liquid. The seeds of cucumber were planted in a polyethylene cup, and grown until their first foliage leaves developed, and then a test spray liquid was applied at a ratio of 20 ml/cup to the plant. After the liquid sprayed to the cucumber were dried, the first true leaf was cut off and placed on a filter paper (70 mm in diameter) impregnated with water in a polyethylene cup (110 mm in diameter). Thirty larvae of Western flower thrips (Frankliniella occidentalis) were set free on the first true leaf, which was covered with a polyethylene cup. After seven days, the number of surviving pests was examined.
For the molecule `CC#CCOc1cc(N2C[C@@H](C)C[C@H](C)C2)ncn1` (relative stereo) [Compound (44), 4-(2-butynyloxy)-6-(trans-3,5-dimethylpiperidino)pyrimidine], the “number of surviving pests” value amounted to 0.
As to `CC#CCOc1ncnc(N2CC(C)CC(C)C2)c1F` (stereo not shown) [(51), 4-(2-butynyloxy)-5-fluoro-6-(3,5-dimethylpiperidino)pyrimidine], the “number of surviving pests” value stood at 0.
As for `CC#CCOc1ncnc(N2CC(C)CC(C)C2)c1F` (stereo not shown) [Compound (4), 4-(2-butynyloxy)-5-fluoro-6-(3,5-dimethylpiperidino)pyrimidine], the “number of surviving pests” value came to 0.
Still for that read-out and setting: the value for `CC#CCOc1cc(N2C[C@H](C)C[C@H](C)C2)ncn1` [Compound (23), 4-(2-butynyloxy)-6-(cis-3,5-dimethylpiperidino)pyrimidine] was 0; that for `CC#CCOc1cc(N2CCCC(C(F)(F)F)C2)ncn1` (stereo not shown) [Compound (24), 4-(2-butynyloxy)-6-(3-trifluoromethylpiperidino)pyrimidine] was 0.
On the same count and under the same terms, the value for `CC#CCOc1ncnc(N2CCCC(C)C2)c1F` (stereo not shown) [Compound (26), 4-(2-butynyloxy)-5-fluoro-6-(3-methylpiperidino)pyrimidine] was 0; that for `CC#CCOc1ncnc(N2C[C@H](C)C[C@H](C)C2)c1F` [Compound (29), 4-(2-butynyloxy)-5-fluoro-6-(cis-3,5-dimethylpiperidino)pyrimidine] was 0.
Same read-out and setting: the value for `CC#CCOc1ncnc(N2CCCC(C)(C)C2)c1F` [Compound (32), 4-(2-butynyloxy)-6-(3,3-dimethylpiperidino)-5-fluoropyrimidine] was 0; that for `CC#CCOc1ncnc(N2CCCCC2CC)c1F` (stereo not shown) [Compound (33), 4-(2-butynyloxy)-6-(2-ethylpiperidino)-5-fluoropyrimidine] was 0; that for `CC#CCOc1ncnc(N2CCCCCCC2)c1F` [Compound (46), 1-(6-(2-butynyloxy)-5-fluoropyrimidin-4-yl)octahydro-1H-azocine] was 0.
Regarding `CC#CCOc1nc(F)nc(N2CC(C)CC(C)C2)c1Cl` (stereo not shown) [Compound (52), 5-chloro-4-(2-butynyloxy)-2-fluoro-6-(3,5-dimethylpiperidino)pyrimidine], the “number of surviving pests” value was found to be 0.
Same read-out and setting: the value for `CC#CCOc1ncnc(N2CC=CCC2)c1F` [Compound (53), 1-(6-(2-butynyloxy)-5-fluoropyrimidin-4-yl)-1,2,3,6-tetrahydropyridine] was 0.
